Results from patent US20110319392A1, “Thiazole Sulfonamide And Oxazole Sulfonamide Kinase Inhibitors” (priority 2009, published 2011).
Counter-ions that a name gives are not always drawn.

Experiments:
SK-MEL-28 tumor cells = assay: Cell growth inhibition assay (CellTiter-Glo), SK-MEL-28; format: cell-based, Human; conditions: Homo sapiens, SK-MEL-28, 72 h; 3 days incubation
In short: (§1)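 Readout was CellTiter-Glo luminescence (total ATP, surrogate for cell number) after 3-day exposure at 37° C, 5% CO2 to 1:3 serial compound dilutions in 0.2% final DMSO. Seeding was 500 cells/well; IC50 derived by 4-parameter fit relative to vehicle-treated wells.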

A375P F11s tumor cells = assay: Cell growth inhibition assay (CellTiter-Glo), A375P F11s; format: cell-based, Human; conditions: for IC50: Homo sapiens
Experimental: (§2) Human breast tumor cells (BT474) were cultured in RPMI (Mediatech […]), containing 10% FBS (JRH Biosciences 12176) and 1% penicillin-streptomycin (Invitrogen 15140). Human head and neck tumor cells (HN5) were cultured in high glucose DMEM (Mediatech 50-013-PB) containing 10% FBS and 1% penicillin-streptomycin. Human colon tumor cells (Colo205) were cultured in RPMI (Mediatech 50-020-PB) containing 10% FBS and 1% penicillin-streptomycin. Human melanoma cancer cells (SK-MEL-28) were cultured in EMEM with nonessential amino acids (Mediatech 50-011-PB) containing 10% FBS, 1% sodium pyruvate (JT Baker 3354-04), and 1% penicillin-streptomycin. Human melanoma cancer cells (A375P F11s) were cultured in RPMI (Mediatech 50-020-PB) containing 10% FBS, 1% sodium pyruvate, and 1% penicillin-streptomycin. Human colon cancer cells (HT-29) were cultured in high glucose DMEM (Mediatech 50-013-PB) containing 10% FBS and 1% penicillin-streptomycin. Human melanoma cancer cells (SK-MEL-3) were cultured in McCoy's 5A (50-025-PB) containing 15% FBS, and 1% penicillin-streptomycin. All cell lines were maintained at 37° C. in a humidified 5% CO2, 95% air incubator. Cells were harvested using trypsin/EDTA (Invitrogen 25200), counted using a haemocytometer, and plated. For 96-well assays (using white full-area NUNC plates cat. #136102), cells were plated in 105 μL at the following densities (cells/well): HNS, 500; Colo 205, 500; SK-MEL-28, 500; A375P F11s, 500; HT-29, 500; SK-MEL-3, 500; and BT474, 3000. For 384-well assays (white full-area NUNC plates, cat. #781080), cells were plated in 48 μL at the following densities (cells/well): HNS, 500; Colo205, 500; SK-MEL-28, 500; A375P F11s, 500; HT-29, 500; SK-MEL-3, 500; and BT474, 2000.
(§3) The next day, compounds were diluted as follow: For 96-well assays, 13.5 μL of compound in DMSO were diluted using nine (9) serial 1:3 dilutions of 4.5 μL in 9 of DMSO. Medium (270 μL/well of RPMI with 10% FBS and 1% penicillin-streptomycin) was added to the plates. Aliquots (7 μL) were added to cells in the final assay giving a final DMSO concentration of 0.2%. For 384-well assays, 15 μL of compound in DMSO were diluted using nine (9) serial 1:3 dilutions of 5 μL in 10 μL of DMSO, followed by a further dilution of 5 μL of compound with 95 μL of medium, of which 2 μL were added to cells in the final assay giving a final DMSO concentration of 0.2%. Cells were incubated at 37° C., 5% CO2 for 3 days.
(§4) Total ATP was measured (as a surrogate estimate of cell number) using CellTiter-Glo® reagent (Promega G7571). Briefly, plates were removed from the incubator and allowed to equilibrate to room temperature for 30 minutes. CellTiter-Glo® (25 μL or 55 μL for 384-well or 96-well assays, respectively) reagent was added to each well and plates were shaken on an orbital plate shaker for 2 minutes. Plates were incubated without shaking for a further 30 minutes and read on an LJL Analyst GT reader in luminometer mode with an integration time of 0.5 seconds per well. Percent inhibition of cell growth was calculated relative to DMSO vehicle-treated control wells. Concentration of compound required to give 50% inhibition of vehicle-treated control cell growth (IC50) was interpolated using a 4-parameter fit for determining IC50 using the following equation: Y=A +((B−A)/(1+((C/X)̂D))) where […].

B-Raf = B-Raf (Homo sapiens, UniProt P15056); assay: B-Raf Accelerated MEK ATPase assay (BRAMA), Method A or B; format: biochemical
Chain of B-Raf (P15056 whole entry): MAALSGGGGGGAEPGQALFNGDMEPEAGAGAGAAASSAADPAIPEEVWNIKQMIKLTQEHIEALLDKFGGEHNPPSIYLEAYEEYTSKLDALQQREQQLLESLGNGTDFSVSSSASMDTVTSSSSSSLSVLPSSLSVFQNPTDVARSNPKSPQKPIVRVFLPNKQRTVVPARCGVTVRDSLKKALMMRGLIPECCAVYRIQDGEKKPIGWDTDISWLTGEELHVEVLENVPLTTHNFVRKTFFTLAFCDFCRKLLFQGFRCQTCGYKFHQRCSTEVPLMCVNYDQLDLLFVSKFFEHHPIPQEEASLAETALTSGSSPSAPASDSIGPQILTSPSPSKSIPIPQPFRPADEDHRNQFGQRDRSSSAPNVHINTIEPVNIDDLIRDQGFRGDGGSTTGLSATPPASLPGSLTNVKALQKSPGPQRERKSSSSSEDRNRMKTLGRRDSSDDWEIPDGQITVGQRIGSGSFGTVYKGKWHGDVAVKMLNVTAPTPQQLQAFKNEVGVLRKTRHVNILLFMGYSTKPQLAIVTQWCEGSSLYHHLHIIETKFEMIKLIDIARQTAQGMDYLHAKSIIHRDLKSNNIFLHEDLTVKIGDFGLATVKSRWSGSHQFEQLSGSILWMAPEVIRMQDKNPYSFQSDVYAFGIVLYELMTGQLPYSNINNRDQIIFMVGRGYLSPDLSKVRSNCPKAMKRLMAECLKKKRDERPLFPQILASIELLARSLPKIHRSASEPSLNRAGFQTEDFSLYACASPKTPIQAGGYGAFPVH
In short: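 ADP production, initiated by catalytic activated Raf with unphosphorylated MEK, is followed by NADH oxidation through a PK/LDH coupled system. Method B differs from the kinetic Method A by a single end-point read and 150 nM final MEK.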

HT-29 tumor cells = assay: Cell growth inhibition assay (CellTiter-Glo), HT-29; format: cell-based, Human; conditions: for IC50: Homo sapiens
Experimental: as §2, §3, §4

HN5 tumor cells = assay: Cell growth inhibition assay (CellTiter-Glo), HN5; format: cell-based, Human; conditions: 3 days incubation
Experimental: as §2, §3, §4

SK-MEL-3 tumor cells = assay: Cell growth inhibition assay (CellTiter-Glo), SK-MEL-3; format: cell-based, Human; conditions: for IC50: Homo sapiens, SK-MEL3
Experimental: as §2, §3, §4

BT474 tumor cells = assay: Cell growth inhibition assay (CellTiter-Glo), BT474; format: cell-based, Human; conditions: 3 days incubation
Experimental: as §2, §3, §4

Colo205 tumor cells = assay: Cell growth inhibition assay (CellTiter-Glo), Colo205; format: cell-based, Human; conditions: Homo sapiens, COLO 205, 72 h; 3 days incubation
In short: as §1

[1] = Method B: final MEK 150 nM, single end point read

Row | SMILES | IC50 (SK-MEL-28 tumor cells) [nM] | Activity in A375P F11s Tumor Cells (A375P F11s tumor cells) | IC50 (B-Raf; Method A) [nM] | Activity in HT-29 Tumor Cells (HT-29 tumor cells) | IC50 (HN5 tumor cells) [nM] | Activity in SK-MEL-3 Tumor Cells (SK-MEL-3 tumor cells) | IC50 (BT474 tumor cells) [nM] | IC50 (Colo205 tumor cells) [nM] | IC50 (A375P F11s tumor cells) [nM] | IC50 (HT-29 tumor cells) [nM] | IC50 (HN5 tumor cells; Homo sapiens, 72 h) [nM] | IC50 (SK-MEL-3 tumor cells) [nM] | IC50 (BT474 tumor cells; Homo sapiens, BT-474, 72 h) [nM] | IC50 (B-Raf; [1]) [nM]
1 | CCNc1nc(-c2cccc(NS(=O)(=O)c3ccccc3)c2)c(-c2ccnc(Nc3ccc(OCCN4CCCC4)c(F)c3)n2)s1 [Example 1, N-(3-(2-(Ethylamino)-5-{2-[(3-fluoro-4-[[2-(1-pyrrolidinyl)ethyl]oxy}phenyl)amino]-4-pyrimidinyl}-1,3-thiazol-4-yl)phenyl]benzenesulfonamide] | 100 to 1000 | ++ (activity of between 100 nM and 1 μM in A375P F11s tumor cells) | 100 to 1000 | ++ (activity of between 100 nM and 1 μM in HT-29 tumor cells) | 100 to 1000 | ++ (activity of between 100 nM and 1 μM in SK-MEL-3 tumor cells) | 100 to 1000 | 100 to 1000 | – | – | – | – | – | –
2 | COCCN1CCN(c2ccc(Nc3nccc(-c4sc(C(C)C)nc4-c4cccc(NS(=O)(=O)c5ccccc5)c4)n3)cn2)CC1 [Example 6, N-[3-(2-(1-Methylethyl)-5-{2-[(6-{4-[2-(methyloxy)ethyl]-1-piperazinyl}-3-pyridinyl)amino]-4-pyrimidinyl}-1,3-thiazol-4-yl)phenyl]benzenesulfonamide] | < 100 | – | < 100 | – | – | – | – | < 100 | < 100 | < 100 | 100 to 1000 | < 100 | > 1000 | –
3 | CC(C)c1nc(-c2cccc(NS(=O)(=O)c3ccccc3)c2)c(-c2ccnc(Nc3ccc(N4CCOCC4)nc3)n2)s1 [Example 8, N-{3-[2-(1-Methylethyl)-5-(2-{[6-(4-morpholinyl)-3-pyridinyl]amino}-4-pyrimidinyl)-1,3-thiazol-4-yl]phenyl}benzenesulfonamide hydrochloride] | < 100 | – | – | – | – | – | – | < 100 | < 100 | 100 to 1000 | > 1000 | < 100 | > 1000 | < 100
4 | COc1ccc(Nc2nccc(-c3sc(C(C)C)nc3-c3cccc(NS(=O)(=O)c4ccccc4)c3)n2)cc1N1CCN(CCC#N)CC1 [Example 9, N-{3-[5-(2-{[3-[4-(2-Cyanoethyl)-1-piperazinyl]-4-(methyloxy)phenyl]amino}-4-pyrimidinyl)-2-(1-methylethyl)-1,3-thiazol-4-yl]phenyl}benzenesulfonamide] | < 100 | – | – | – | – | – | – | < 100 | < 100 | 100 to 1000 | 100 to 1000 | < 100 | > 1000 | < 100
5 | CC(=O)N1CCN(c2ccc(Nc3nccc(-c4sc(C(C)C)nc4-c4cccc(NS(=O)(=O)c5ccc(F)cc5)c4)n3)cn2)CC1 [Example 10, N-{3-[5-(2-{[6-(4-Acetyl-1-piperazinyl)-3-pyridinyl]amino}-4-pyrimidinyl)-2-(1-methylethyl)-1,3-thiazol-4-yl]phenyl}-4-fluorobenzenesulfonamide] | < 100 | – | – | – | – | – | – | < 100 | < 100 | 100 to 1000 | > 1000 | 100 to 1000 | > 1000 | < 100
6 | CC(=O)N1CCN(c2ccc(Nc3nccc(-c4sc(C(C)C)nc4-c4cccc(NS(=O)(=O)c5cccc(F)c5)c4)n3)cn2)CC1 [Example 11, N-{3-[5-(2-{[6-(4-Acetyl-1-piperazinyl)-3-pyridinyl]amino}-4-pyrimidinyl)-2-(1-methylethyl)-1,3-thiazol-4-yl]phenyl}-3-fluorobenzenesulfonamide] | < 100 | – | – | – | – | – | – | < 100 | < 100 | < 100 | > 1000 | < 100 | > 1000 | < 100
7 | CC(=O)N1CCN(c2ccc(Nc3nccc(-c4sc(C(C)C)nc4-c4cccc(NS(=O)(=O)c5ccccc5F)c4)n3)cn2)CC1 [Example 12, N-{3-[5-(2-{[6-(4-Acetyl-1-piperazinyl)-3-pyridinyl]amino}-4-pyrimidinyl)-2-(1-methylethyl)-1,3-thiazol-4-yl]phenyl}-2-fluorobenzenesulfonamide] | < 100 | – | – | – | – | – | – | < 100 | < 100 | < 100 | 100 to 1000 | < 100 | > 1000 | < 100
8 | CC(C)c1nc(-c2cccc(NS(=O)(=O)c3c(F)cccc3F)c2)c(-c2ccnc(Nc3ccc(OC4CCN(CCS(C)(=O)=O)CC4)c(F)c3)n2)s1 [Example 13, 2,6-Difluoro-N-{3-[5-(2-{[3-fluoro-4-({1-[2-(methylsulfonyl)ethyl]-4-piperidinyl}oxy)phenyl]amino}-4-pyrimidinyl)-2-(1-methylethyl)-1,3-thiazol-4-yl]phenyl}benzenesulfonamide hydrochloride] | < 100 | – | – | – | – | – | – | < 100 | < 100 | 100 to 1000 | 100 to 1000 | < 100 | > 1000 | < 100
9 | CC(C)c1nc(-c2cccc(NS(=O)(=O)c3c(F)cccc3F)c2)c(-c2ccnc(Nc3ccc(N4CCOCC4)c(C(=O)O)c3)n2)s1 [Example 14, 5-({4-[4-(3-{[(2,6-Difluorophenyl)sulfonyl]amino}phenyl)-2-(1-methylethyl)-1,3-thiazol-5-yl]-2-pyrimidinyl}amino)-2-(4-morpholinyl)benzoic acid] | < 100 | – | – | – | – | – | – | < 100 | < 100 | 100 to 1000 | > 1000 | < 100 | > 1000 | < 100
10 | CC(C)c1nc(-c2cccc(NS(=O)(=O)c3c(F)cccc3F)c2)c(-c2ccnc(Nc3ccc(N4CCN5CCOC[C@H]5C4)nc3)n2)s1 [Example 15] | < 100 | – | – | – | – | – | – | < 100 | < 100 | < 100 | 100 to 1000 | < 100 | > 1000 | < 100
11 | CS(=O)(=O)CCN1CCN(c2ccc(Nc3nccc(-c4oc(N5CCCC5)nc4-c4ccc(F)c(NS(=O)(=O)c5c(F)cccc5F)c4)n3)cc2F)CC1 [Example 119] | 100 to 1000 | – | – | – | – | – | – | 100 to 1000 | 100 to 1000 | 100 to 1000 | > 1000 | – | > 1000 | < 100
